From US20020137929A1, “1 - (3-heterocyclylphenyl) isothiourea, -isourea, -guanidine and -amidine herbicidal agents” (Intellectual Property Department, BASF Aktiengesellschaft, priority 1998, published 2002)

Columns and labels:
[1] = test system: AMBEL (Ragweed, Common); assay: Postemergence herbicidal evaluation; type: in vivo, Ambrosia artemisifolia; details: for AMBEL herbicidal rating: postemergence
Summary of the method: (§1)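 Compound is applied as a foliar spray to seedlings about two weeks old, formulated in equal parts acetone and water with 0.5% TWEEN 20 and delivered at 40 psi to give about 0.0156–0.500 kg per hectare. Injury is rated visually 0–9 after four to five weeks.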

[2] = test system: CASOB (Sicklepod); assay: Postemergence herbicidal evaluation; type: in vivo, Cassia obtusifolia; details: for CASOB herbicidal rating: postemergence
Summary of the method: as §1

[3] = test system: GALAP (Galium); assay: Postemergence herbicidal evaluation; type: in vivo, Galium aparine; details: for GALAP herbicidal rating: postemergence
Summary of the method: as §1

[4] = test system: IPOHE (Morningglory, Ivyleaf); assay: Postemergence herbicidal evaluation; type: in vivo, Ipomoea hederacea; details: for IPOHE herbicidal rating: postemergence
Summary of the method: as §1

[5] = test system: ABUTH (Velvetleaf); assay: Preemergence herbicidal evaluation; type: in vivo, Abutilon theophrasti; details: rated 4-5 weeks after treatment; for ABUTH rating: preemergence, 0-9 scale
Summary of the method: (§2)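 Herbicidal effect scored visually, 0-9, at 4 to 5 weeks against a control; compound applied preemergence by aqueous acetone spray to seeded soil at about 0.0156 to 0.500 kg/ha.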

[6] = test system: CASOB (Sicklepod); assay: Preemergence herbicidal evaluation; type: in vivo, Cassia obtusifolia; details: rated 4-5 weeks after treatment; for CASOB rating: preemergence, 0-9 scale
Summary of the method: as §2

[7] = test system: IPOHE (Morningglory, Ivyleaf); assay: Preemergence herbicidal evaluation; type: in vivo, Ipomoea hederacea; details: rated 4-5 weeks after treatment; for IPOHE rating: preemergence, 0-9 scale
Summary of the method: as §2

[8] = test system: ECHCG (Barnyardgrass); assay: Preemergence herbicidal evaluation; type: in vivo, Echinochloa crus-galli; details: rated 4-5 weeks after treatment; for ECHCG rating: preemergence, 0-9 scale
Summary of the method: as §2

[9] = test system: GLXMAW (Soybean, Williams); assay: Preemergence herbicidal evaluation; type: in vivo, Glycine max, (L.) Merr. cv Williams; details: rated 4-5 weeks after treatment; for GLXMAW rating: preemergence, 0-9 scale
Summary of the method: as §2

[10] = test system: TRZAWR (Wheat, Winter, cv Riband); assay: Preemergence herbicidal evaluation; type: in vivo, Triticum aestivum; details: rated 4-5 weeks after treatment; for TRZAWR rating: preemergence, 0-9 scale
Summary of the method: as §2

[11] = test system: ZEAMX (Corn, Field); assay: Preemergence herbicidal evaluation; type: in vivo, Zea mays; details: rated 4-5 weeks after treatment; for ZEAMX rating: preemergence, 0-9 scale
Summary of the method: as §2

[12] = test system: MOOVA (Monochoria); assay: Preemergence weed control under flooded paddy conditions; type: in vivo, Monochoria vaginalis; details: rated 3-4 weeks after treatment
Summary of the method: (§3)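 Using flooded silt loam (water 1.5 to 3 cm deep), seeds sown in the top 0.5 cm were exposed preemergence to compound pipetted into the flood at about 0.0313 to 0.500 kg/ha. Effects were scored 0-9 by eye three to four weeks later.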

[13] = test system: SAGPY (Arrowhead (Pygmaea)); assay: as above; type: in vivo, Sagittaria pygmaea; details: rated 3-4 weeks after treatment
Summary of the method: as §3

[14] = test system: CYPIR (Rice Flatsedge); assay: Postemergence weed control under flooded paddy conditions; type: in vivo, Cyperus iria; details: postemergence weeds
Summary of the method: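 Flood-water application, about 0.0313–0.500 kg/ha a.i. in aqueous/acetone 50/50 v/v; water depth 1.5–3 cm throughout. Weeds 3–5 cm, rice 1.5–2.5 leaf. Greenhouse; 0–9 visual rating vs control at 3–4 wk.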

CCOC(=O)CN1C(=O)C(Cc2ccccc2OC(C)C(=O)OC)SC1=Nc1cc(-n2c(=O)cc(C(F)(F)F)n(C)c2=O)c(F)cc1Cl (centres unmarked) [Compound 50, 2-{{2-Chloro-5-[3,6-dihydro-3-methyl-2,6-dioxo-4-(trifluoromethyl)-1(2H)-pyrimidinyl]-4-fluoro-phenyl}imino}-5-(o-hydroxybenzyl)-4-oxo-3-thiazolidineacetic acid, ethyl ester, ester with methyl lactate]
9.0: Postemergence herbicidal rating AMBEL ([1]; Rate 0.0156 kg/ha) | Postemergence herbicidal rating AMBEL ([1]; Rate 0.0313 kg/ha) | Postemergence herbicidal rating AMBEL ([1]; Rate 0.0625 kg/ha) | Postemergence herbicidal rating IPOHE ([4]; Rate 0.0156 kg/ha) | Postemergence herbicidal rating IPOHE ([4]; Rate 0.0313 kg/ha) | Postemergence herbicidal rating IPOHE ([4]; Rate 0.0625 kg/ha) | Preemergence herbicidal rating ABUTH ([5]; rate 0.0625 kg/ha) | Preemergence herbicidal rating ABUTH ([5]; rate 0.1250 kg/ha) | Preemergence herbicidal rating ABUTH ([5]; rate 0.2500 kg/ha) | Preemergence herbicidal rating CASOB ([6]; rate 0.1250 kg/ha) | Preemergence herbicidal rating CASOB ([6]; rate 0.2500 kg/ha)
3.0: Herbicidal rating MOOVA ([12]; 0.1250 kg/ha) | Herbicidal rating SAGPY ([13]; 0.1250 kg/ha) | Herbicidal rating SAGPY ([13]; 0.2500 kg/ha)
7.0: Herbicidal rating MOOVA ([12]; 0.2500 kg/ha)
0.0: Postemergence herbicidal rating CASOB ([2]; Rate 0.0156 kg/ha) | Postemergence herbicidal rating GALAP ([3]; Rate 0.0156 kg/ha) | Preemergence herbicidal rating CASOB ([6]; rate 0.0625 kg/ha) | Preemergence herbicidal rating IPOHE ([7]; rate 0.0625 kg/ha) | Preemergence herbicidal rating IPOHE ([7]; rate 0.1250 kg/ha) | Preemergence herbicidal rating IPOHE ([7]; rate 0.2500 kg/ha) | Preemergence herbicidal rating ECHCG ([8]; rate 0.0625 kg/ha) | Preemergence herbicidal rating ECHCG ([8]; rate 0.1250 kg/ha) | Preemergence herbicidal rating ECHCG ([8]; rate 0.2500 kg/ha) | Preemergence herbicidal rating GLXMAW ([9]; rate 0.0625 kg/ha) | Preemergence herbicidal rating GLXMAW ([9]; rate 0.1250 kg/ha) | Preemergence herbicidal rating GLXMAW ([9]; rate 0.2500 kg/ha) | Preemergence herbicidal rating TRZAWR ([10]; rate 0.0625 kg/ha) | Preemergence herbicidal rating TRZAWR ([10]; rate 0.1250 kg/ha) | Preemergence herbicidal rating TRZAWR ([10]; rate 0.2500 kg/ha) | Preemergence herbicidal rating ZEAMX ([11]; rate 0.0625 kg/ha) | Preemergence herbicidal rating ZEAMX ([11]; rate 0.1250 kg/ha) | Preemergence herbicidal rating ZEAMX ([11]; rate 0.2500 kg/ha) | Herbicidal rating MOOVA ([12]; 0.0313 kg/ha) | Herbicidal rating MOOVA ([12]; 0.0625 kg/ha) | Herbicidal rating CYPIR ([14]; rate 0.0313 kg/ha, 3-4 weeks after treatment) | Herbicidal rating CYPIR ([14]; rate 0.0625 kg/ha, 3-4 weeks after treatment) | Herbicidal rating CYPIR ([14]; rate 0.1250 kg/ha, 3-4 weeks after treatment) | Herbicidal rating CYPIR ([14]; rate 0.2500 kg/ha, 3-4 weeks after treatment)
4.0: Postemergence herbicidal rating GALAP ([3]; Rate 0.0625 kg/ha)
1.0: Postemergence herbicidal rating CASOB ([2]; Rate 0.0313 kg/ha)
2.0: Postemergence herbicidal rating CASOB ([2]; Rate 0.0625 kg/ha) | Postemergence herbicidal rating GALAP ([3]; Rate 0.0313 kg/ha) | Herbicidal rating SAGPY ([13]; 0.0313 kg/ha) | Herbicidal rating SAGPY ([13]; 0.0625 kg/ha)

CCOC(=O)CN1C(=O)C(CC(=O)OC(C)C(=O)OCC)S/C1=N/c1cc(-n2c(=O)cc(C(F)(F)F)n(C)c2=O)c(F)cc1Cl (centres unmarked) [Compound 87]
9.0: AMBEL herbicidal rating ([1]; rate 0.1250 kg/ha) | AMBEL herbicidal rating ([1]; rate 0.2500 kg/ha) | CASOB herbicidal rating ([2]; rate 0.2500 kg/ha) | IPOHE herbicidal rating ([4]; rate 0.0156 kg/ha) | IPOHE herbicidal rating ([4]; rate 0.0313 kg/ha) | IPOHE herbicidal rating ([4]; rate 0.0625 kg/ha) | IPOHE herbicidal rating ([4]; rate 0.1250 kg/ha) | IPOHE herbicidal rating ([4]; rate 0.2500 kg/ha) | ABUTH rating ([5]; 0.2500 kg/ha) | ABUTH rating ([5]; 0.5000 kg/ha) | MOOVA herbicidal effect rating ([12]; 0.0313 kg/ha) | MOOVA herbicidal effect rating ([12]; 0.0625 kg/ha) | MOOVA herbicidal effect rating ([12]; 0.1250 kg/ha) | MOOVA herbicidal effect rating ([12]; 0.2500 kg/ha) | MOOVA herbicidal effect rating ([12]; 0.5000 kg/ha)
1.0: GALAP herbicidal rating ([3]; rate 0.0625 kg/ha) | GALAP herbicidal rating ([3]; rate 0.1250 kg/ha) | IPOHE rating ([7]; 0.1250 kg/ha) | TRZAWR rating ([10]; 0.5000 kg/ha) | ZEAMX rating ([11]; 0.5000 kg/ha)
0.0: AMBEL herbicidal rating ([1]; rate 0.0156 kg/ha) | CASOB herbicidal rating ([2]; rate 0.0156 kg/ha) | CASOB herbicidal rating ([2]; rate 0.0313 kg/ha) | CASOB herbicidal rating ([2]; rate 0.0625 kg/ha) | GALAP herbicidal rating ([3]; rate 0.0156 kg/ha) | GALAP herbicidal rating ([3]; rate 0.0313 kg/ha) | CASOB rating ([6]; 0.1250 kg/ha) | CASOB rating ([6]; 0.2500 kg/ha) | ECHCG rating ([8]; 0.1250 kg/ha) | ECHCG rating ([8]; 0.2500 kg/ha) | ECHCG rating ([8]; 0.5000 kg/ha) | GLXMAW rating ([9]; 0.1250 kg/ha) | TRZAWR rating ([10]; 0.1250 kg/ha) | TRZAWR rating ([10]; 0.2500 kg/ha) | ZEAMX rating ([11]; 0.1250 kg/ha) | ZEAMX rating ([11]; 0.2500 kg/ha) | SAGPY herbicidal effect rating ([13]; 0.0313 kg/ha)
5.0: IPOHE rating ([7]; 0.2500 kg/ha) | GLXMAW rating ([9]; 0.5000 kg/ha) | SAGPY herbicidal effect rating ([13]; 0.2500 kg/ha) | Herbicidal rating CYPIR ([14]; Rate 0.0313 kg/ha, rated 3 to 4 weeks after treatment) | Herbicidal rating CYPIR ([14]; Rate 0.0625 kg/ha, rated 3 to 4 weeks after treatment) | Herbicidal rating CYPIR ([14]; Rate 0.1250 kg/ha, rated 3 to 4 weeks after treatment) | Herbicidal rating CYPIR ([14]; Rate 0.2500 kg/ha, rated 3 to 4 weeks after treatment)
4.0: AMBEL herbicidal rating ([1]; rate 0.0313 kg/ha) | GLXMAW rating ([9]; 0.2500 kg/ha) | SAGPY herbicidal effect rating ([13]; 0.0625 kg/ha) | SAGPY herbicidal effect rating ([13]; 0.1250 kg/ha)
2.0: CASOB herbicidal rating ([2]; rate 0.1250 kg/ha) | CASOB rating ([6]; 0.5000 kg/ha)
6.0: IPOHE rating ([7]; 0.5000 kg/ha)
3.0: GALAP herbicidal rating ([3]; rate 0.2500 kg/ha) | ABUTH rating ([5]; 0.1250 kg/ha)
7.0: AMBEL herbicidal rating ([1]; rate 0.0625 kg/ha) | SAGPY herbicidal effect rating ([13]; 0.5000 kg/ha) | Herbicidal rating CYPIR ([14]; Rate 0.5000 kg/ha, rated 3 to 4 weeks after treatment)
